Laboratory results as given in US10899910B2, “Quaternary cationic polymers” (ECOLAB USA, INC., priority 2016, dated 2021).

What was measured:
[1] = Surface tension measurement (Tracker tensiometer); type: physicochemical; conditions: room temperature
Experimental: Surface tension measurements were conducted on a Tracker tensiometer (Teclis Instruments) at room temperature. Various concentrations of surfactant solutions were prepared and measurements were conducted.
The surface tension as a function of concentration of the cationic surfactant samples were measured and are listed in Table 2, where NT means not tested.

[2] = system: collection of aerobic bacteria from 30 water samples in cooling towers across North America; assay: Biofilm reduction (biofilm inhibition test, stain absorbance at 590 nm); type: cell-based; conditions: for (Comp. - Single Quat 2)*100 / Single Quat 2: biofilm reduction relative to Single Quat 2
Experimental: Biofilm reduction experiments were conducted to test the efficacy of multi-quaternary cationic polymers compared to single quaternary compounds. Two different compositions were prepared containing single quaternary compounds: a composition (Single Quat 1) comprising about 50% by weight bisoctyl dimethyl ammonium chloride (CAS #5538-94-3) and about 5-10% by weight glycerin; and a composition (Single Quat 2) comprising about 50% by weight didecyl-dimethyl ammonium chloride (CAS #7173-51-5) and about 10-30% by weight ethanol. The test bacteria comprised a collection of aerobic bacteria from 30 water samples in cooling towers across North America. Different concentrations of cationic polymer salts and single quaternary compounds were tested ranging from about 0.8 ppm to about 1000 ppm. Using the biofilm inhibition test protocols, the absorbed stains were extracted and absorbance was measured at 590 nm. The biofilm reduction was calculated by comparing the absorbance of treated vs untreated controls, then averaged over six replicates.

[3] = Corrosion bubble cell test (Linear Polarization Resistance); conditions: 2 ppm with 1% 2ME synergist, 80° C.
Experimental: (§1) Cationic polymer salts were evaluated for corrosion performance as compared to a C12-C18 alkyl dimethyl benzyl ammonium chloride via a bubble test procedure. The bubble test simulates low flow areas where little or no mixing of water and oil occurs. The test was conducted using brine (80% of the brine being 3% sodium chloride brine and 20% of the brine being a hydrocarbon containing 75% LVT-200 kerosene oil and 25% xylene). The brine was placed into kettles and purged with carbon dioxide. The brine was continually purged with carbon dioxide to saturate the brine prior to starting the test. After the test began, the test cell was blanketed with carbon dioxide one hour prior to electrode insertion and through the duration of the test to maintain saturation. The kettles were stirred at 150 revolutions per minute (rpm) for the duration of the test to maintain thermal equilibrium at 80° C. The corrosion rate was measured by Linear Polarization Resistance (LPR) techniques. The working electrode used was carbon steel. The counter and reference electrodes were both 1018 carbon steel. The electrodes were all cleaned and polished prior to testing. Data were collected for three hours before 20 ppm of each of the compositions (containing 2 ppm of each of various pentaquaternary cationic polymer salts or the comparative C12-C18 alkyl dimethyl benzyl ammonium chloride and 1% 2-mercaptoethanol (2ME) as synergist in an organic solvent) was dosed into its respective cell. Data were collected overnight. A low concentration of the compositions was used to differentiate between the compositions.
Corrosion bubble cell tests were performed according to the method of Example A1 to evaluate a hexaquaternary cationic polymer salt for corrosion performance as compared to a C12-C18 alkyl dimethyl benzyl ammonium chloride. Data were collected for three hours before 20 ppm of each of the compositions (containing 2 ppm of a hexaquaternary cationic polymer salt or the comparative C12-C18 alkyl dimethyl benzyl ammonium chloride and 1% 2ME as synergist in an organic solvent) was dosed into its respective cell. Data were collected overnight. A low concentration of the compositions was used to differentiate between the compositions.
as §1, with “six” for “three”, “polyethyleneimine-based” for “pentaquaternary”, “cell. However, for the comparative composition, data was only collected three hours before addition of the compositions.” for “cell.”

[4] = CO2-saturated brine/hydrocarbon, three hours baseline (Tables 8, 9)

CCCCCCCCCCCCCCCCCC[N+](C)(C)CC(O)CN(CCN(CCN(CC(O)C[N+](C)(C)C)CC(O)C[N+](C)(C)C)CC(O)C[N+](C)(C)C)CC(O)C[N+](C)(C)C.[Cl-].[Cl-].[Cl-].[Cl-].[Cl-] (stereo not drawn) [Compound 7]
Surface tension ([1]; concentration 0.010 %): 73.70 mN/m | Surface tension ([1]; concentration 0.025 %): 72.05 mN/m | Surface tension ([1]; concentration 0.050 %): 64.84 mN/m | Surface tension ([1]; concentration 0.100 %): 60.93 mN/m | Surface tension ([1]; concentration 0.200 %): 57.12 mN/m | Surface tension ([1]; concentration 0.500 %): 55.13 mN/m | Biofilm reduction ([2]; active conc. 0.8 ppm): 22.9% | (Comp. - Single Quat 2)*100 / Single Quat 2 ([2]; active conc. 0.8 ppm): 106.8% | Biofilm reduction ([2]; active conc. 1.6 ppm): 12.7% | (Comp. - Single Quat 2)*100 / Single Quat 2 ([2]; active conc. 1.6 ppm): 321.3% | Biofilm reduction ([2]; active conc. 3.0 ppm): 46.7% | (Comp. - Single Quat 2)*100 / Single Quat 2 ([2]; active conc. 3.0 ppm): 35.5% | Biofilm reduction ([2]; active conc. 6.0 ppm): 23.5% | (Comp. - Single Quat 2)*100 / Single Quat 2 ([2]; active conc. 6.0 ppm): 195.0% | Biofilm reduction ([2]; active conc. 8.0 ppm): 54.9% | (Comp. - Single Quat 2)*100 / Single Quat 2 ([2]; active conc. 8.0 ppm): −20.8% | Biofilm reduction ([2]; active conc. 12.0 ppm): 65.1% | (Comp. - Single Quat 2)*100 / Single Quat 2 ([2]; active conc. 12.0 ppm): 24.2% | Biofilm reduction ([2]; active conc. 16.0 ppm): 90.6% | (Comp. - Single Quat 2)*100 / Single Quat 2 ([2]; active conc. 16.0 ppm): 10.9% | Biofilm reduction ([2]; active conc. 25.0 ppm): 90.6% | (Comp. - Single Quat 2)*100 / Single Quat 2 ([2]; active conc. 25.0 ppm): 12.9% | Biofilm reduction ([2]; active conc. 31.0 ppm): 94.7% | (Comp. - Single Quat 2)*100 / Single Quat 2 ([2]; active conc. 31.0 ppm): 16.0% | Biofilm reduction ([2]; active conc. 50.0 ppm): 93.0% | (Comp. - Single Quat 2)*100 / Single Quat 2 ([2]; active conc. 50.0 ppm): 15.7% | Biofilm reduction ([2]; active conc. 62.0 ppm): 96.6% | (Comp. - Single Quat 2)*100 / Single Quat 2 ([2]; active conc. 62.0 ppm): 47.6% | Biofilm reduction ([2]; active conc. 100.0 ppm): 79.3% | (Comp. - Single Quat 2)*100 / Single Quat 2 ([2]; active conc. 100.0 ppm): 608.5% | Biofilm reduction ([2]; active conc. 125.0 ppm): 96.6% | (Comp. - Single Quat 2)*100 / Single Quat 2 ([2]; active conc. 125.0 ppm): 1517.3% | Biofilm reduction ([2]; active conc. 250.0 ppm): 97.1% | (Comp. - Single Quat 2)*100 / Single Quat 2 ([2]; active conc. 250.0 ppm): 15.3% | Biofilm reduction ([2]; active conc. 500.0 ppm): 97.8% | (Comp. - Single Quat 2)*100 / Single Quat 2 ([2]; active conc. 500.0 ppm): 6.3% | Biofilm reduction ([2]; active conc. 1000.0 ppm): 98.4% | (Comp. - Single Quat 2)*100 / Single Quat 2 ([2]; active conc. 1000.0 ppm): 63.7% | biofilm reduction compared with the Single Quat 2 composition ([2]; at concentrations as low as about 12 ppm): reduced biofilms to a greater extent than the Single Quat 2 composition | % Protection [3, 4]: 64%

CCCCCCCCCCCCCCCCCC[N+](C)(C)CC(O)CN(CCN(CCN(CC(O)C[N+](C)(C)CCCCCCCCCCCCCCCCCC)CC(O)C[N+](C)(C)CCCCCCCCCCCCCCCCCC)CC(O)C[N+](C)(C)C)CC(O)C[N+](C)(C)C.[Cl-].[Cl-].[Cl-].[Cl-].[Cl-] (stereo not drawn) [Compound 10]
Surface tension ([1]; concentration 0.010 %): 70.99 mN/m | Surface tension ([1]; concentration 0.025 %): 61.99 mN/m | Surface tension ([1]; concentration 0.050 %): 57.33 mN/m | Surface tension ([1]; concentration 0.100 %): 52.64 mN/m | Surface tension ([1]; concentration 0.200 %): 50.58 mN/m | Surface tension ([1]; concentration 0.500 %): 47.92 mN/m | Surface tension ([1]; concentration 1.000 %): 47.48 mN/m

CCCCCCCCCCCCCCCCCC[N+](C)(C)CC(O)CN(CCN(CCN(CC(O)C[N+](C)(C)CCCCCCCCCCCCCCCCCC)CC(O)C[N+](C)(C)CCCCCCCCCCCCCCCCCC)CC(O)C[N+](C)(C)C)CC(O)C[N+](C)(C)CCCCCCCCCCCCCCCCCC.[Cl-].[Cl-].[Cl-].[Cl-].[Cl-] (stereo not drawn) [Compound 11]
Surface tension ([1]; concentration 0.010 %): 63.52 mN/m | Surface tension ([1]; concentration 0.025 %): 60.01 mN/m | Surface tension ([1]; concentration 0.050 %): 56.35 mN/m | Surface tension ([1]; concentration 0.100 %): 53.23 mN/m | Surface tension ([1]; concentration 0.200 %): 50.16 mN/m | Surface tension ([1]; concentration 0.500 %): 47.38 mN/m | Surface tension ([1]; concentration 1.000 %): 46.58 mN/m | % Protection [3, 4]: 76%

CCCCCCCCCCCCCCCCCC[N+](C)(C)CC(O)CN(CCN(CC(O)C[N+](C)(C)CCCCCCCCCCCCCCCCCC)CC(O)C[N+](C)(C)CCCCCCCCCCCCCCCCCC)CCN(CC(O)C[N+](C)(C)CCCCCCCCCCCCCCCCCC)CC(O)C[N+](C)(C)CCCCCCCCCCCCCCCCCC.[Cl-].[Cl-].[Cl-].[Cl-].[Cl-] (stereo not drawn) [Compound 12]
Surface tension ([1]; concentration 0.010 %): 63.16 mN/m | Surface tension ([1]; concentration 0.025 %): 55.77 mN/m | Surface tension ([1]; concentration 0.050 %): 51.89 mN/m | Surface tension ([1]; concentration 0.100 %): 49.42 mN/m | Surface tension ([1]; concentration 0.200 %): 47.02 mN/m | Surface tension ([1]; concentration 0.500 %): 45.02 mN/m | Surface tension ([1]; concentration 1.000 %): 44.22 mN/m | Surface tension ([1]; concentration 1.500 %): 43.46 mN/m | Surface tension ([1]; concentration 2.000 %): 42.97 mN/m | % Protection [3, 4]: 55%

CCCCCCCCCCCCCCCCCC[N+](C)(C)CC(O)CN(CCN(CCN(CC(O)C[N+](C)(C)CCCCCCCCCCCCCCCCCC)CC(O)C[N+](C)(C)CCCCCCCCCCCCCCCCCC)CC(O)C[N+](C)(C)CCCCCCCCCCCCCCCCCC)CCN(CC(O)C[N+](C)(C)CCCCCCCCCCCCCCCCCC)CC(O)C[N+](C)(C)CCCCCCCCCCCCCCCCCC.[Cl-].[Cl-].[Cl-].[Cl-].[Cl-].[Cl-] (stereo not drawn) [Compound 13]
Surface tension ([1]; concentration 0.010 %): 63.28 mN/m | Surface tension ([1]; concentration 0.025 %): 59.04 mN/m | Surface tension ([1]; concentration 0.050 %): 55.36 mN/m | Surface tension ([1]; concentration 0.100 %): 52.65 mN/m | Surface tension ([1]; concentration 0.200 %): 50.31 mN/m | Surface tension ([1]; concentration 0.500 %): 48.02 mN/m | Surface tension ([1]; concentration 1.000 %): 47.78 mN/m | % Protection [3, 4]: 52%

C12-C18 alkyl dimethyl benzyl ammonium chloride [reference compound]
% Protection ([3]; six hours baseline (comparative: three hours) (Table 10)): 38% | % Protection [3, 4]: 38%
